The text below walks through data of PubChem BioAssay (NCI).

Among the test systems are MDA-MB-231 breast; UO-31 renal; TK-10 renal; SK-MEL-2 melanoma; OVCAR-3 ovarian; OVCAR-5 ovarian; BT-549 breast; EKVX NSCLC; M14 melanoma; MOLT-4 leukemia.
Experiment in all cases: DTP human tumour cell line panel, 48 h

Values joined by “and” are separate entries in the source; they are usually repeats but may differ in a detail not shown here. Equal values may be shown once.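 Each compound was tested at five concentrations against cells in 96-well plates for 48 hours. GI50: concentration for 50% inhibition of growth. TGI marks complete inhibition of growth.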 Where a SMILES comes first, the peptide text is derived from it. [ ]: non-standard residue; d: D form. The star is where a group is joined. ξ: configuration not given here. X3 = COc1ccc(C(N*)c2ccc(OC)cc2)cc1; NMeF = CN[C@@H](Cc1ccccc1)C(=O)O; NMeD = CN[C@@H](CC(=O)O)C(=O)O; NMeV = CN[C@H](C(=O)O)C(C)C; ξNMeV = CNC(C(=O)O)C(C)C; Boc = CC(C)(C)OC(=O)*; ξNMeA = CNC(C)C(=O)O; ξV = CC(C)C(N)C(=O)O

A word on the GI50: it is the concentration giving 50% growth inhibition. The term TGI denotes the concentration giving total growth inhibition. Low readings indicate more potent growth arrest, high ones less potent growth arrest. For `CCn1c(-c2nonc2N)nc2c(C#CC(C)(C)O)nc(OC[C@@H](N)c3ccccc3)cc21`, the GI50 in the test with MDA-MB-231 breast was 4.68 µM; with UO-31 renal it was 5.08 µM; with TK-10 renal, 5.09 µM; in the test on SK-MEL-2 melanoma, 5.83 µM; in the test on OVCAR-3 ovarian, 4.24 µM; in the test on OVCAR-5 ovarian it was 7.92 µM. Moreover, the GI50 in the test with BT-549 breast was 3.94 µM; with EKVX NSCLC, 10.4 µM; with M14 melanoma, 4.52 µM; with MOLT-4 leukemia, 4.42 µM. Also, the TGI with MDA-MB-231 breast was 8.86 µM; in the test with UO-31 renal it was 9.4 µM; in the test with TK-10 renal it was 11.3 µM; in the test on SK-MEL-2 melanoma, 10.2 µM; in the test on OVCAR-3 ovarian, 8.23 µM; with OVCAR-5 ovarian, 15.1 µM. Further, the TGI worked out at 7.48 µM in the test on BT-549 breast, 22.4 µM in the test on EKVX NSCLC, 8.11 µM in the test with M14 melanoma and 16 µM in the test with MOLT-4 leukemia.

For `CC(C)=CCC(O)C1=CC(=O)c2c(O)ccc(O)c2C1=O` (configuration not stated), the TGI in the test with MDA-MB-231 breast was found to be 4.71 µM; in the test with UO-31 renal, 2.93 µM; in the test on TK-10 renal, 3.04 µM; with SK-MEL-2 melanoma it was 3.83 µM; in the test on OVCAR-3 ovarian it was 2.55 µM; with OVCAR-5 ovarian it was 3.89 µM. The TGI was 3.17 µM with BT-549 breast, 3.02 µM in the test on EKVX NSCLC, 2.52 µM in the test with M14 melanoma and 0.135 µM in the test with MOLT-4 leukemia.

Consider `N#CC(C#N)=C/C=C(\Sc1nc2ccccc2s1)c1ccc(Cl)cc1`, for which the GI50 was 5.87 µM in the test on MDA-MB-231 breast; 7.85 µM with UO-31 renal; 6.18 µM in the test with TK-10 renal; 27.8 µM with SK-MEL-2 melanoma; 4.77 µM in the test on OVCAR-3 ovarian; 7.02 µM in the test on OVCAR-5 ovarian. The GI50 with BT-549 breast was 11.3 µM; in the test on EKVX NSCLC, 18.4 µM; with M14 melanoma, 3.19 µM; with MOLT-4 leukemia, 0.565 µM. Moreover, the TGI in the test with MDA-MB-231 breast was 22.3 µM; in the test with UO-31 renal, 29.3 µM; in the test on TK-10 renal, 15 µM; in the test on SK-MEL-2 melanoma, > 100 µM; in the test with OVCAR-3 ovarian, 22.9 µM; in the test on OVCAR-5 ovarian, 21.5 µM. For the same compound, the results for the TGI in the test on BT-549 breast, in the test with EKVX NSCLC and with M14 melanoma were 26.2 µM, 40 µM and 10.5 µM, respectively.

With `COCCOc1ccc(-c2nc3ccc(-c4nc5ccc(N6CCN(C)CC6)cc5[nH]4)cc3[nH]2)cc1`, the GI50 was 2.25 µM with MDA-MB-231 breast; 29.4 µM in the test with UO-31 renal; 4.74 µM in the test with TK-10 renal; 1.64 µM in the test with SK-MEL-2 melanoma; 0.621 µM in the test on OVCAR-3 ovarian; 3.59 µM in the test with OVCAR-5 ovarian. Further, the GI50 with BT-549 breast was 1.76 µM; with EKVX NSCLC, 6.56 µM; in the test on M14 melanoma, 0.449 µM; in the test on MOLT-4 leukemia, 2.81 µM. In addition, the TGI in the test on MDA-MB-231 breast is 6.49 µM; in the test with UO-31 renal it was > 100 µM; with TK-10 renal, 40.2 µM; in the test on SK-MEL-2 melanoma it was 3.59 µM; in the test with OVCAR-3 ovarian it was 3.13 µM; with OVCAR-5 ovarian it was 9.97 µM. Besides, the TGI in the test on BT-549 breast was 3.96 µM; in the test with EKVX NSCLC, 46.3 µM; in the test with M14 melanoma it was 2.5 µM; in the test with MOLT-4 leukemia, > 100 µM.

As to `COc1ccc(C(NC(=O)C[C@@H](C(=O)N(C)C(C)C(=O)O)N(C)C(=O)[C@@H]2CCCN2C(=O)[C@H](C(C)C)N(C)C(=O)C(C(C)C)N(C)C(=O)[C@H](Cc2ccccc2)N(C)C(=O)C(NC(=O)OC(C)(C)C)C(C)C)c2ccc(OC)cc2)cc1` (some centres not stated) (Boc-[ξV][NMeF][ξNMeV][NMeV]P[NMeD](X3)[ξNMeA]-OH), the TGI with MDA-MB-231 breast was 32.3 µM; in the test with UO-31 renal, 37.5 µM and 31.5 µM; in the test on TK-10 renal, 37.5 µM and 35.1 µM; in the test on SK-MEL-2 melanoma, 16.8 µM and 28.9 µM; with OVCAR-3 ovarian, 27.4 µM and 32.9 µM; in the test on OVCAR-5 ovarian, > 37.5 µM and 31.5 µM. For the same compound, the TGI in the test with BT-549 breast is 15.4 µM; with EKVX NSCLC it was 37.5 µM and 39.6 µM; in the test on M14 melanoma, 28.6 µM and 31.1 µM; in the test with MOLT-4 leukemia it was 19.3 µM and 43.7 µM. Besides, the GI50 is 17.6 µM with UO-31 renal; 20.6 µM in the test on TK-10 renal; 14.5 µM in the test on SK-MEL-2 melanoma; 18.2 µM in the test on OVCAR-3 ovarian; 17.3 µM in the test on OVCAR-5 ovarian; 21.6 µM in the test on EKVX NSCLC. Moreover, the results for the GI50 in the test with M14 melanoma and with MOLT-4 leukemia were 17.4 µM and 17 µM, respectively.

As to `C[C@]12CCC3c4ccc(O)cc4CCC3C1CC[C@@]2(O)CNC(=O)/C=C/c1ccc(O)c(O)c1` (some centres not stated), the GI50 was 3.58 µM in the test on MDA-MB-231 breast; 3.5 µM with UO-31 renal; 2.52 µM with TK-10 renal; 13.5 µM in the test on SK-MEL-2 melanoma; 2.89 µM with OVCAR-3 ovarian; 25.1 µM in the test with OVCAR-5 ovarian. Further, the GI50 in the test on BT-549 breast was 3.03 µM; in the test on EKVX NSCLC it was 9.97 µM; in the test on M14 melanoma, 10.1 µM; with MOLT-4 leukemia, 5.09 µM. Besides, the TGI in the test with MDA-MB-231 breast stood at 16.4 µM; in the test on UO-31 renal it was 15.7 µM; in the test with TK-10 renal, 13.7 µM; in the test with SK-MEL-2 melanoma, 32.2 µM; in the test with OVCAR-3 ovarian it was 21.5 µM; in the test with OVCAR-5 ovarian, 46.9 µM. For the same compound, the TGI with BT-549 breast stood at 15.3 µM; in the test on EKVX NSCLC, 29.8 µM; in the test on M14 melanoma, 22.5 µM; with MOLT-4 leukemia, 31.2 µM.

As for `O=C1CCC2(c3ccc(Cl)cc3)Nc3ccncc3N12` (configuration not stated), the TGI in the test with MDA-MB-231 breast, in the test on UO-31 renal, in the test on TK-10 renal, in the test with SK-MEL-2 melanoma, in the test with OVCAR-3 ovarian and in the test with OVCAR-5 ovarian was > 10 µM in each case. The total growth inhibition concentration (TGI) in the test on BT-549 breast, in the test with EKVX NSCLC, in the test with M14 melanoma and in the test with MOLT-4 leukemia was > 10 µM each time.

As for `O=C(/C=C/c1ccc(O)cc1)c1ccc(O)cc1`, the TGI with MDA-MB-231 breast was > 100 µM; in the test with UO-31 renal it was 51.2 µM; in the test with TK-10 renal it was > 100 µM; in the test with SK-MEL-2 melanoma it was 50 µM; in the test on OVCAR-3 ovarian it was 52.1 µM; in the test with OVCAR-5 ovarian, > 76.3 µM. The TGI in the test with BT-549 breast was > 75.3 µM; in the test on EKVX NSCLC, 97.1 µM; with M14 melanoma, 42.7 µM; in the test with MOLT-4 leukemia, 82.3 µM.

On to `COC[C@H]1Cn2cc(-c3nc(Nc4ccnn4C)ncc3C)nc2C(=O)N1Cc1ccc(F)c(F)c1`, for which the GI50 in the test with MDA-MB-231 breast was 0.678 µM; with UO-31 renal, 2.66 µM; in the test on TK-10 renal it was 5.5 µM; with SK-MEL-2 melanoma, 0.0964 µM; with OVCAR-3 ovarian, 60.6 µM; with OVCAR-5 ovarian, 0.103 µM. Moreover, the GI50 is 48.9 µM in the test on BT-549 breast, 0.255 µM in the test on EKVX NSCLC, 0.0403 µM with M14 melanoma and 23.9 µM in the test with MOLT-4 leukemia. The TGI in the test on MDA-MB-231 breast is > 78.6 µM; in the test on UO-31 renal it was > 86.6 µM; in the test on TK-10 renal, > 100 µM; with SK-MEL-2 melanoma, > 100 µM; in the test on OVCAR-3 ovarian, > 100 µM; with OVCAR-5 ovarian, > 100 µM. In addition, the TGI with BT-549 breast, in the test on EKVX NSCLC, in the test with M14 melanoma and in the test on MOLT-4 leukemia was > 100 µM each time.
